Measured values published in paper PMC10351538 (Journal of Enzyme Inhibition and Medicinal Chemistry, 2023).

Target: triosephosphate isomerase (TcTIM WT) (Trypanosoma cruzi, UniProt P52270)
Assay: coupled enzyme assay
Format: biochemical
Details: read-out: approximately 95% inactivation

Sequence of triosephosphate isomerase (TcTIM WT) (P52270 whole entry): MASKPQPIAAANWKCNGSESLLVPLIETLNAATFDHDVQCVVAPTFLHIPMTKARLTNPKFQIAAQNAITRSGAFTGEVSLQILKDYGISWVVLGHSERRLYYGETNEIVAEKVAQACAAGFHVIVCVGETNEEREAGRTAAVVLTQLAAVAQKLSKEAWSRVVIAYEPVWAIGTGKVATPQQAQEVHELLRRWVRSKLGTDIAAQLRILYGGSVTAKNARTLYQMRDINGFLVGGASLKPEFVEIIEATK

For `COCCCOc1ccnc(C[S+]([O-])c2nc3ccccc3[nH]2)c1C` (stereo not shown) [Rbz, rabeprazole], the IC95 was about 75 µM.
